# Data as given in patent US20080188554A1, “METHODS OF TREATING AVIAN HYPERTENSION” (Regents of the University of California Office of …, priority 2006, published 2008).
# Where two headings read alike, the source gives them in different places.
# T1: sEH (Homo sapiens, UniProt P34913)
# T1 sequence (P34913 1-555): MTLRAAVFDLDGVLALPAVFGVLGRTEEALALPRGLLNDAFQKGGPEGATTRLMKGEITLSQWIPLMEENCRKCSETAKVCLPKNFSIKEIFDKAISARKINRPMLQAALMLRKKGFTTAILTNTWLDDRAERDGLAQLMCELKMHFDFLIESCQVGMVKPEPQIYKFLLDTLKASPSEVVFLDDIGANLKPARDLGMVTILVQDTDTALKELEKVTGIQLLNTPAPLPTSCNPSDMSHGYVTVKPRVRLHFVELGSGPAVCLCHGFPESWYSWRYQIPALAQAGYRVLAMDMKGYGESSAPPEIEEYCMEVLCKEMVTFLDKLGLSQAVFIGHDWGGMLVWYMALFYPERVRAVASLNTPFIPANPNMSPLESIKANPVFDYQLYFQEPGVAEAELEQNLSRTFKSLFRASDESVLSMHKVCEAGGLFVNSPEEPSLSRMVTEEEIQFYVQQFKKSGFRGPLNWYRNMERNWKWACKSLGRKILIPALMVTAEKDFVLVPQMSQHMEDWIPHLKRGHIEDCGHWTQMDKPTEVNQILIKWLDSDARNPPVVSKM
# T2: mouse sEH (Mus musculus, UniProt P34914)
# T2 sequence (P34914 1-554): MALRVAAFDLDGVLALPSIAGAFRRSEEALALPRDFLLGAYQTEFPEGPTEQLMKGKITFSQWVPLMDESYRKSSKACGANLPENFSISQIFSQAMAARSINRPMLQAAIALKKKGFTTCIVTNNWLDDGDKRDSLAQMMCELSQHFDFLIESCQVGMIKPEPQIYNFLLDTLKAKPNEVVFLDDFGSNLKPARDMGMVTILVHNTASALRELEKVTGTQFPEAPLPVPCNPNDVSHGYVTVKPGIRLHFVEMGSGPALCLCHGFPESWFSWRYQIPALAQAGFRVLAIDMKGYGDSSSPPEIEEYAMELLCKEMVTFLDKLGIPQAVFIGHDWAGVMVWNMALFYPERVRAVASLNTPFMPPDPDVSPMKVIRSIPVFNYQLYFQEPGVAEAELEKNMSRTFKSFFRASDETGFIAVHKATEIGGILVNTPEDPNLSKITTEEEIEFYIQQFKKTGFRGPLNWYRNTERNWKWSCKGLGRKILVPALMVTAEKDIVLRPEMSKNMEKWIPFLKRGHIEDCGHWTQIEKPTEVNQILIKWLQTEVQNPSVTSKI
# B1: Recombinant chicken sEH (Gallus gallus) (protein)
# chain: MARRFALFDLGGVLFGPGLQHFLGSCERSYALPRNFLRDVLFAGGSDSPHAKVMRGQITLSQLFLEVDEGCRQHASTAGITLPTTFSIAHVFEEMAAKGTLNAPLLRAASMLRRNGFKTCVFTNNWVDDSMGRLFTSSLLTVVQRHFDLLIESCRVGLHKPDPRIYTYALEVLQAQPQEVIFLDDIGENLKPAREMGMATILVRDTDTVLKELQELSGVQLLQQEEPLPTTCDPATMSHGYVPIRPGVQLHFVEMGHGPAICLCHGFPESWLSWRYQIPALADAGFRVIALEMKGYGESTAPPEIEEYSQEQICKDLTIFLDKLGIPQAVFIGHDWGGAVVWNMALFYPERVRAVASLNTPYRPADPTVDIVETMKSFPMFDYQFYFQEPGVAEAELEKDIGRTLKALIRSTRPEDRLHSVPGLLGVQERGGLLVGFPEDIPESLILHGAELQYYIERFQRSGFRGPLNWYRNMRPNWRWALSAKDRKILMPALMVTAGKDVVLLPSMSKGMEEWIPQLRRGHLEACGHWTQMERPAALNRILVEWLEGLPPDGAMLRVSRL
# Columns and labels:
# sEH = molecular target: T1, sEH; settings: t-DPPO as substrate, from Morisseau 2000; cited from earlier work
# mouse sEH [1] = molecular target: T2, mouse sEH; settings: t-DPPO as substrate, from Morisseau 2000; cited from earlier work
# Recombinant chicken sEH [2] = molecular target: T3, Recombinant chicken sEH (Gallus gallus, UniProt Q45QT1); assay: Radiotracer epoxide hydrolase activity and kinetic parameters using t-DPPO as substrate; type: biochemical
# Procedure: (§1) Epoxide hydrolase activity was measured using racemic [^3H]-trans-1,3-diphenylpropene oxide (t-DPPO) as substrate (Borhan, B. et al., Anal. Biochem. 231:188-200 (1995)). t-DPPO was previously synthesized and purified Borhan, B. et al., Anal. Biochem. 231:188-200 (1995)). 1 μL of a 5 mM solution of [^3H]t-DPPO in DMF was added to 100 μL of enzyme preparation in sodium phosphate buffer (0.1 M, pH 7.4) containing 0.1 mg/mL of BSA ([S]final=50 μM). The enzyme was incubated at 30 °C for 10 min, and the reaction quenched by addition of 60 μL of methanol and 200 μL of isooctane, which extracts the remaining epoxide from the aqueous phase. Extractions with 1-hexanol were performed in parallel to assess the possible presence of glutathione transferase activity which could also transform the substrate (Borhan, B. et al., Anal. Biochem. 231:188-200 (1995)). The activity was followed by measuring the quantity of radioactive diol formed in the aqueous phase using a scintillation counter (Wallac Model 1409, Gaithersburg, Md.). Assays were performed in triplicate.
# A solution of [^3H] t-DPPO (1 μL in DMF) was added to 100 μL of enzyme preparation in sodium phosphate buffer (0.1 M, pH 7.4) containing 0.1 mg/mL of BSA ([S]final=50 μM). The Km determination was performed by fitting the data to the Michaelis-Menten equation using the nonlinear regression algorithm in SigmaPlot (SPSS, Inc., Chicago, Ill.) with an R-squared value of at least 0.97. The standard deviation was generated by performing the experiment three separate times in triplicate.
# [3] = molecular target: partially purified recombinant chicken sEH (Gallus gallus, UniProt Q45QT1); assay: Inhibitor assay with fluorescent substrate PHOME; type: biochemical; settings: PHOME 50 μM
# Procedure: Dilutions of enzyme, inhibitors and substrate were made in BisTris-HCl buffer (25 mM, pH 7.0, 0.1 mg/ml BSA). The enzyme was incubated with 20 μL of inhibitor dilutions for 10 min prior to substrate addition. After this incubation, 50 μL of (3-phenyl-oxiranyl)-acetic acid cyano-(6-methoxy-naphthalen-2-yl)-methyl ester (PHOME) at a final concentration of 50 μM (1% final DMSO content per well) was added.
# The inhibitor screen occurred in two steps. The first step was incubation with a final inhibitor concentration of 100 nM. Positive hits obtained in this primary screen were then incubated with inhibitors at final concentrations of 1, 10, and 100 nM.
# Recombinant chicken sEH [4] = molecular target: T3, Recombinant chicken sEH; assay: Non-radioactive epoxide hydrolase assay (HPLC-MS/MS), specific activity of substrates; type: biochemical; settings: for Specific activity: compound as substrate, 50 μM, 30° C., 10 min
# Procedure: The trans-9,10-epoxystearate was purchased (Sigma-Aldrich). A 5 mM solution of each substrate was made in ethanol for the EETs and methanol for the epoxystearate. The substrate solution (1 μL) was added to 100 μL of enzyme preparation in sodium phosphate buffer (0.1 M, pH 7.4) containing 0.1 mg/mL of BSA ([S]final=50 μM). The enzyme was incubated with the substrate at 30° C. for 10 min, and the reaction quenched by addition of 400 μL of methanol. The products were analyzed by HPLC-MS/MS as previously described (Newman, J. W. et al., J. Lipid Res. 43:1563-1578 (2002)) with the following exceptions. A 2.0×20 mm, 3-μm Luna C18 Mercury MS column (Phenomenex, Torrance, Calif.) was used with a 350 μL/min isocratic flow of […] (vol/vol/vol) acetonitrile/water/methanol with 0.1% glacial acetic acid for 2.5 min. Assays were performed in triplicate.
# mouse sEH [5] = molecular target: T2, mouse sEH; settings: compound as substrate, from Chacos 1983; cited from earlier work
# Recombinant chicken sEH [6] = molecular target: T3, Recombinant chicken sEH; assay: IC50 determination using [3H]-t-DPPO as substrate; type: biochemical
# Procedure: The IC50 values reported herein were determined using racemic [^3H]-trans-1,3-diphenylpropene oxide (t-DPPO) as a substrate (Borhan, B. et al., Anal. Biochem. 231:188-200 (1995)). The inhibitors were synthesized as described (Morisseau, C. et al., Biochem. Pharmacol. 63:1599-1608 (2002)). Extracts of broiler hepatic cytosol or partially purified enzyme was diluted 50-fold in pH 7.4 0.1 M sodium phosphate buffer containing 0.1 mg/mL BSA, then incubated with the inhibitors for 5 min at 30° C. prior to substrate introduction. Prepared samples were incubated at 30° C. for 10 min and stopped as indicated above. Conditions used gave rates that were linear both with time and enzyme concentration. Assays were performed in triplicate. By definition, IC50 is the concentration of inhibitor that reduces enzyme activity by 50%. IC50 was determined by regression with a minimum of two points in the linear region of the curve on either side of the IC50 (for a total of 5 points). The curve was generated from at least three separate studies conducted in triplicate in order to obtain the standard deviation given in the results section.
# [7] = test system: chicken sEH phosphatase activity; assay: Phosphatase assay; type: biochemical; settings: conditions developed for the mammalian enzyme phosphatase assay
# Procedure: The phosphatase substrate, threo-9,10-phosphonooxy-hydroxy-octadecanoic acid was synthesized as previously described (Newman, J. W. et al., Proc. Natl. Acad. Sci. USA 100: 1558-1563 (2003)). The assay was performed and analyzed by HPLC-MS/MS as described (Newman, J. W. et al., Proc. Natl. Acad. Sci. USA 100:1558-1563 (2003)).
# [8] = substrate: c1ccc(CC2OC2c2ccccc2)cc1; assay: Radiotracer epoxide hydrolase activity and kinetic parameters using t-DPPO as substrate; type: biochemical; settings: other: t-DPPO as substrate; recombinant chicken sEH; pH 7.4; 30.0 °C
# Procedure: as §1
# A solution of [^3H] t-DPPO (1 μL in DMF) was added to 100 μL of enzyme preparation in sodium phosphate buffer (0.1 M, pH 7.4) containing 0.1 mg/mL of BSA ([S]final=50 μM). […]
# [9] = partially purified recombinant chicken sEH, read-out: Chicken sEH IC50
molecule,measurement,setting,value
"c1ccc(CC2OC2c2ccccc2)cc1 (racemic) [t-DPPO, trans-1,3-diphenylpropene oxide]",Km,sEH,6.2 µM
same,Specific activity,sEH,4500 ± 200.0 nmol/min/mg
same,kcat,sEH,4.3 ± 0.3 s⁻¹
same,Km,mouse sEH [1],4.3 µM
same,Specific activity,mouse sEH [1],17000 ± 300.0 nmol/min/mg
same,kcat,mouse sEH [1],18.0 ± 0.3 s⁻¹
same,"kcat/Km ratio of chicken enzyme, fold lower than human enzyme",Recombinant chicken sEH [2]; compared to human sEH,20 fold
same,"kcat/Km ratio of chicken enzyme, fold lower than mouse enzyme",Recombinant chicken sEH [2]; compared to mouse sEH,100 fold
same,Specific activity,"Recombinant chicken sEH [2]; recombinant chicken sEH, mean ± SD of 3 experiments",823.1 ± 27.3 nmol/min/mg
CC(C)=CCOC1CCC(NC(=O)NC23CC4CC(CC(C4)C2)C3)CC1 (stereo not drawn) [Compound 983],IC50,[3]; [9],5.3 ± 0.2 nM
"CCCCC/C=C\CC1OC1C/C=C\C/C=C\CCCC(=O)O (stereo not drawn) [11,12-EET]",Specific activity,Recombinant chicken sEH [4],12.0 ± 1.2 nmol/min/mg
same,Specific activity,mouse sEH [5],640.0 nmol/min/mg
O=C(Nc1cccc(C(F)(F)F)c1)NC1CCC(OCc2c(F)cccc2F)CC1 (stereo not drawn) [Compound 1285],IC50,[3]; [9],4.4 ± 0.1 nM
O=C(NC1CCCCCCC1)NC1CCC(Oc2ccc(F)cc2)CC1 (stereo not drawn) [Compound 1272],IC50,[3]; [9],5.1 ± 0.3 nM
O=C(Nc1cccc(Cl)c1)NC1CCC(OCc2c(F)cccc2F)CC1 (stereo not drawn) [Compound 1302],IC50,[3]; [9],2 ± 0.1 nM
O=C(NC1CCCCCC1)NC1CCC(Oc2ccc(F)cc2)CC1 (stereo not drawn) [Compound 1515],IC50,[3]; [9],2.6 ± 0.1 nM
O=C(Nc1ccc(C(F)(F)F)cc1)NC1CCC(OCc2c(F)cccc2F)CC1 (stereo not drawn) [Compound 1289],IC50,[3]; [9],3.5 ± 0.1 nM
CCCCCOC(=O)C1CCCC(NC(=O)NC23CC4CC(CC(C4)C2)C3)C1 (stereo not drawn) [Compound 861],IC50,[3]; [9],5.7 ± 0.3 nM
O=C(NC1CCCCCC1)NC1CCC(Oc2ccc(F)cc2)CC1 (stereo not drawn) [Compound 1271],IC50,[3]; [9],2.7 ± 0.3 nM
"O=C(O)CCCCCCCCCCCNC(=O)NC12CC3CC(CC(C3)C1)C2 [AUDA, 12-(3-Adamantan-1-yl-ureido)dodecanoic acid]",IC50,Recombinant chicken sEH [6],13.7 nM
CCCCCOC(=O)C1CCC(NC(=O)NC23CC4CC(CC(C4)C2)C3)CC1 (stereo not drawn) [Compound 863],IC50,[3]; [9],5.2 ± 0.2 nM
O=C(Nc1cccc(Br)c1)NC1CCC(OCc2c(F)cccc2F)CC1 (stereo not drawn) [Compound 1308],IC50,[3]; [9],2.4 ± 0.1 nM
O=C(NCCCc1ccccc1)NC1CCC(Oc2ccc(F)cc2)CC1 (stereo not drawn) [Compound 1270],IC50,[3]; [9],3.5 ± 0.1 nM
"threo-9,10-phosphonooxy-hydroxy-octadecanoic acid",Hydrolysis of phosphatase substrate by chicken enzyme,[7],did not hydrolyze
"CCCCC/C=C\C/C=C\CC1OC1C/C=C\CCCC(=O)O (stereo not drawn) [8,9-EET]",Specific activity,Recombinant chicken sEH [4],11.6 ± 0.1 nmol/min/mg
same,Specific activity,mouse sEH [5],370.0 nmol/min/mg
O=C(O)CCCCCCCCCCCNC(=O)NC12CC3CC(CC(C3)C1)C2 [Compound 700],IC50,"[3]; Chicken sEH IC50, partially purified recombinant chicken sEH",12.6 ± 1.6 nM
O=C(NCCCc1ccccc1)NC1CCC(OCc2c(F)cccc2F)CC1 (stereo not drawn) [Compound 1318],IC50,[3]; [9],1.9 ± 0.1 nM
"CCCCCC1OC1C/C=C\C/C=C\C/C=C\CCCC(=O)O (stereo not drawn) [14,15-EET]",Activity relative to the activity measured with t-DPPO,Recombinant chicken sEH [4],less than 1/30
same,Specific activity,Recombinant chicken sEH [4],24.5 ± 2.1 nmol/min/mg
same,Specific activity,mouse sEH [5],1260.0 nmol/min/mg
C=CCOC1CCC(NC(=O)NC23CC4CC(CC(C4)C2)C3)CC1 (stereo not drawn) [Compound 982],IC50,[3]; [9],1.7 ± 0.1 nM
B1,Km,[8],25.3 µM
